Data published in ChEMBL document CHEMBL3414484, “Novel imidazole derivatives as heme oxygenase-1 (HO-1) and heme oxygenase-2 (HO-2) inhibitors and their cytotoxic activity in human-derived cancer cell lines” (Eur J Med Chem, 2015).
pIC50: −log10 of the molar value. One block for each molecule: values may come before it.

Tests used:
[1] = target: T1, Heme oxygenase 2 (Rattus norvegicus, UniProt P23711); test: Inhibition of HO2 in Sprague-Dawley rat brain microsomal fraction assessed as reduction in bilirubin formation incubated for 60 mins by double beam spectrophotometry
T1 sequence (P23711 whole entry): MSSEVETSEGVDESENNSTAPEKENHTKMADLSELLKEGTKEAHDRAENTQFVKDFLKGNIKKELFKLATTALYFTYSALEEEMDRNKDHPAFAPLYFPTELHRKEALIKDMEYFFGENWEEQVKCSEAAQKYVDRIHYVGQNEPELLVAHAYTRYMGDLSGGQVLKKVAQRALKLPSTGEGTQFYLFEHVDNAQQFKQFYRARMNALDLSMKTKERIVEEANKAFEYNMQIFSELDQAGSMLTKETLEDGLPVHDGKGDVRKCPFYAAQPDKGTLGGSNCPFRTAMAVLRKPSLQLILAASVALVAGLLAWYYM

[2] = system: LNCaP; test: Selectivity index, ratio of IC50 for MDCK cells to IC50 human LNCAP cells
[3] = system: DU-145; test: Cytotoxicity against human DU145 cells incubated for 72 hrs by sulforhodamine B assay; type: functional, cell-based; details: DU-145, 72 h
[4] = system: MDCK; test: Selectivity index, ratio of IC50 for MDCK cells to IC50 human MCF7 cells
[5] = system: MDA-MB-231; test: Cytotoxicity against human MDA-MB-231 cells incubated for 72 hrs by sulforhodamine B assay; type: functional, cell-based; details: MDA-MB-231, 72 h
[6] = system: MDCK; test: Selectivity index, ratio of IC50 for MDCK cells to IC50 human PC3 cells
[7] = Cytotoxicity against human PC3 cells incubated for 72 hrs by sulforhodamine B assay; type: functional, cell-based; details: PC-3, 72 h
[8] = system: LNCaP; test: Cytotoxicity against human LNCAP cells incubated for 72 hrs by sulforhodamine B assay; type: functional, cell-based
[9] = system: MCF7; test: Cytotoxicity against human MCF7 cells incubated for 72 hrs by sulforhodamine B assay; type: functional, cell-based; details: MCF7, 72 h
[10] = system: DU-145; test: Selectivity index, ratio of IC50 for MDCK cells to IC50 human DU145 cells
[11] = system: MDCK; test: Selectivity index, ratio of IC50 for MDCK cells to IC50 human MDA-MB-231 cells
[12] = system: MDCK; test: Cytotoxicity against MDCK cells incubated for 72 hrs by sulforhodamine B assay; type: cell-based; details: Canis lupus familiaris
[13] = target: T2, Heme oxygenase 1 (Rattus norvegicus, UniProt P06762); test: Inhibition of HO1 in Sprague-Dawley rat spleen microsomal fraction assessed as reduction in bilirubin formation incubated for 60 mins by double beam spectrophotometry; type: microsomes
T2 sequence (P06762 whole entry): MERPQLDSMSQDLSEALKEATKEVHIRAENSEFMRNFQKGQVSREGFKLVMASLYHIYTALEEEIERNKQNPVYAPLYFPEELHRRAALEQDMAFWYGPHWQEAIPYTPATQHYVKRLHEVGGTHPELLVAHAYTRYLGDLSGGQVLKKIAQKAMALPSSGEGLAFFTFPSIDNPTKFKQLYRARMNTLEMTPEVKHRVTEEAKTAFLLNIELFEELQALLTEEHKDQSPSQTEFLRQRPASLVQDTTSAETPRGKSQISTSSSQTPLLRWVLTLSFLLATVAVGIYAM

pIC50 [1]: 4.95
SMILES: Brc1cccc(OCCCCn2cncn2)c1

pIC50 [1]: 4.35
SMILES: O=[N+]([O-])c1ccc(OCCCn2cncn2)cc1

pIC50 [1]: < 4.00
SMILES: c1ccc(OCCCn2cncn2)cc1

pIC50 [1]: 4.11
SMILES: O=[N+]([O-])c1ccc(OCCCn2ccnc2)cc1

pIC50 [1]: 4.38
SMILES: O=[N+]([O-])c1ccc(OCCCCn2cncn2)cc1

pIC50 [1]: 4.47
SMILES: Brc1cccc(OCCCn2cncn2)c1

pIC50 [1]: 4.44
SMILES: Ic1ccc(OCCCn2ccnc2)cc1

SMILES: Ic1ccc(OCCCCn2ccnc2)cc1
Ratio IC50 [2]: 2 | pIC50 [3]: 4.26 | Ratio IC50 [4]: 2 | pIC50 [5]: 4.26 | Ratio IC50 [6]: 2 | pIC50 [7]: 4.08 | pIC50 [8]: 4.77 | pIC50 [9]: 4.56 | Ratio IC50 [10]: 2 | Ratio IC50 [11]: 2 | pIC50 [12]: 3.99

pIC50 [13]: 4.37 | pIC50 [1]: 6.05
SMILES: Brc1cccc(OCCCCCn2ccnc2)c1

pIC50 [13]: 4.47 | pIC50 [1]: 4.39
SMILES: Brc1cccc(OCCCCCCn2ccnc2)c1

pIC50 [13]: 4.36 | pIC50 [1]: 6.05
SMILES: Ic1ccc(OCCCCCn2ccnc2)cc1
Ratio IC50 [2]: 2 | pIC50 [3]: 4.56 | Ratio IC50 [4]: 2 | pIC50 [5]: 4.56 | Ratio IC50 [6]: 2 | pIC50 [7]: 4.56 | pIC50 [8]: 4.56 | pIC50 [9]: 4.96 | Ratio IC50 [10]: 2 | Ratio IC50 [11]: 2 | pIC50 [12]: 4.26

pIC50 [13]: 4.38 | pIC50 [1]: < 4.00
SMILES: Ic1ccc(OCCCCCCn2ccnc2)cc1

pIC50 [13]: 4.77 | pIC50 [1]: 4.31
SMILES: c1ccc2oc(SCCCn3ccnc3)nc2c1

pIC50 [13]: 4.51 | pIC50 [1]: 4.13
SMILES: c1ccc2oc(SCCCCn3ccnc3)nc2c1

pIC50 [13]: 6.05 | pIC50 [1]: 4.90
SMILES: c1ccc2sc(SCCCn3ccnc3)nc2c1
Ratio IC50 [2]: 2 | pIC50 [3]: 4.26 | Ratio IC50 [4]: 2 | pIC50 [5]: 4.26 | Ratio IC50 [6]: 2 | pIC50 [7]: 4.08 | pIC50 [8]: 4.26 | pIC50 [9]: 4.56 | Ratio IC50 [10]: 2 | Ratio IC50 [11]: 2 | pIC50 [12]: 4.08

pIC50 [13]: 6.00 | pIC50 [1]: 6.10
SMILES: c1ccc2sc(SCCCCn3ccnc3)nc2c1
Ratio IC50 [2]: 2 | pIC50 [3]: 4.08 | Ratio IC50 [4]: 2 | pIC50 [5]: 4.26 | Ratio IC50 [6]: 2 | pIC50 [7]: 4.08 | pIC50 [8]: 4.26 | pIC50 [9]: 4.56 | Ratio IC50 [10]: 2 | Ratio IC50 [11]: 2 | pIC50 [12]: 4.23

pIC50 [13]: 4.40 | pIC50 [1]: 4.95
SMILES: c1ccc2sc(SCCCCCn3ccnc3)nc2c1

pIC50 [13]: 4.74 | pIC50 [1]: 6.05
SMILES: Clc1ccc2sc(SCCCn3ccnc3)nc2c1

pIC50 [13]: < 4.00 | pIC50 [1]: 6.05
SMILES: Clc1ccc2sc(SCCCCn3ccnc3)nc2c1

pIC50 [13]: 4.44 | pIC50 [1]: 6.05
SMILES: Clc1ccc2sc(SCCCCCn3ccnc3)nc2c1

pIC50 [13]: 4.75 | pIC50 [1]: 4.45
SMILES: O=c1oc2ccccc2n1CCCCn1ccnc1

pIC50 [13]: 4.78 | pIC50 [1]: 4.54
SMILES: O=c1sc2ccccc2n1CCCn1ccnc1

pIC50 [13]: 4.70 | pIC50 [1]: 6.10
SMILES: Brc1cccc(OCCCCCn2cncn2)c1

SMILES: Brc1cccc(OCCCCn2ccnc2)c1
Ratio IC50 [2]: 2 | pIC50 [3]: 4.33 | Ratio IC50 [4]: 2 | pIC50 [5]: 4.56 | Ratio IC50 [6]: 2 | pIC50 [7]: 4.26 | pIC50 [8]: 4.56 | pIC50 [9]: 4.56 | Ratio IC50 [10]: 2 | Ratio IC50 [11]: 2 | pIC50 [12]: 4.08
